According to patent publication US9580433B2 (Janssen Pharmaceutica NV, priority 2013, dated 2017):

What was measured:
[1] = test system: Abeta total produced and secreted by SKNBE2 cells (BACE1); experiment: BACE1 cellular αLisa assay in SKNBE2 cells, Abeta total; format: cell-based, human; conditions: Homo sapiens, SKNBE2, 18 h, SKNBE2 cells expressing hAPP695, 18 hours incubation; read-out: Cellular αLisa assay in SKNBE2 cells Abetatotal pIC50 (converted)
Method: (§1) BACE1 Cellular αLisa Assay in SKNBE2 Cells
(§2) In two αLisa assays the levels of Abeta total and Abeta 1-42 produced and secreted into the medium of human neuroblastoma SKNBE2 cells are quantified. The assay is based on the human neuroblastoma SKNBE2 expressing the wild type Amyloid Precursor Protein (hAPP695). The compounds are diluted and added to these cells, incubated for 18 hours and then measurements of Abeta 1-42 and Abeta total are taken. Abeta total and Abeta 1-42 are measured by sandwich αLisa. αLisa is a sandwich assay using biotinylated antibody AbN/25 attached to streptavidin coated beads and antibody Ab4G8 or cAb42/26 conjugated acceptor beads for the detection of Abeta total and Abeta 1-42 respectively. In the presence of Abeta total or Abeta 1-42, the beads come into close proximity. The excitation of the donor beads provokes the release of singlet oxygen molecules that trigger a cascade of energy transfer in the acceptor beads, resulting in light emission. Light emission is measured after 1 hour incubation (excitation at […] and emission at 615 nm).
(§3) A best-fit curve is fitted by a minimum sum of squares method to the plot of % Controlmin versus compound concentration.

BACE2 = molecular target: T1, BACE2 (Homo sapiens, UniProt Q9Y5Z0); experiment: BACE2 biochemical FRET based assay; conditions: recombinant BACE2, 450 min, pH 5.0; read-out: BACE2 Biochemical FRET based assay pIC50 (converted)
T1 construct: recombinant BACE2 protein in a final concentration of 0.4 μg/ml
T1 sequence (Q9Y5Z0 63-518): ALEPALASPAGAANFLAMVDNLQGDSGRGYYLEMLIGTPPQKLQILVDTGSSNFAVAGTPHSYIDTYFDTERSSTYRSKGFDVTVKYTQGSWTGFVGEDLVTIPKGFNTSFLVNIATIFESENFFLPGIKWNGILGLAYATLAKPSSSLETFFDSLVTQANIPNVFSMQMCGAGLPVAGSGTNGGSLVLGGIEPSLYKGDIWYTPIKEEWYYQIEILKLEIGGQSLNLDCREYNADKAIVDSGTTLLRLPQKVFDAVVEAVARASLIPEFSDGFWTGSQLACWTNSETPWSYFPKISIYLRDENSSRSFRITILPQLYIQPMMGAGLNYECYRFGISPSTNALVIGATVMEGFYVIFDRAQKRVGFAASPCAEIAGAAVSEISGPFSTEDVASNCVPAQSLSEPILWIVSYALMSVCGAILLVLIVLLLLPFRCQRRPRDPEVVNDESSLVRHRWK

BACE1 = molecular target: T2, BACE1 (Homo sapiens, UniProt P56817); experiment: BACE1 biochemical FRET based assay; conditions: recombinant BACE1, 450 min, pH 5.0; read-out: BACE1 Biochemical FRET based assay pIC50 (converted)
T2 construct: recombinant BACE1 protein in a final concentration of 0.04 g/ml
T2 sequence (P56817 46-501): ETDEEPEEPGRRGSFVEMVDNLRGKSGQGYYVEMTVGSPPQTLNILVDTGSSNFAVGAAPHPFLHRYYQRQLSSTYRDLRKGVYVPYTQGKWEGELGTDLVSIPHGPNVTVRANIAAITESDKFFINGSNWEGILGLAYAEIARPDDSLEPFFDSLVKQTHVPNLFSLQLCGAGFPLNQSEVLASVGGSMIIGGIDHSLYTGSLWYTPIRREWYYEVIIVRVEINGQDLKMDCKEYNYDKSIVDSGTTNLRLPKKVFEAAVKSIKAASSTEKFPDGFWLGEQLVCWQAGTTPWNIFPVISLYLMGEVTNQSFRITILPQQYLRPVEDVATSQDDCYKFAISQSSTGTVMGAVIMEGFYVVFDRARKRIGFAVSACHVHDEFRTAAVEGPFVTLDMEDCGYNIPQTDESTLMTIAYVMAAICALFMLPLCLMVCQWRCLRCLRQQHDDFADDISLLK

[2] = test system: brain levels of soluble Aβ42, Aβ40; experiment: In vivo Aβ lowering, brain levels of soluble Aβ by MSD electrochemiluminescence; set-up: species or system mouse; conditions: 4 h after administration, untreated control set at 100
Description: To determine whether acute administration of an Aβ lowering agent would reduce Aβ levels in vivo, non-transgenic rodents, e.g. mice or rats were used. Animals treated with the Aβ lowering agent were examined and compared to those untreated or treated with vehicle and brain levels of soluble Aβ42, Aβ40, Aβ38, and Aβ37 were quantitated by Meso Scale Discovery's (MSD) electrochemiluminescence detection technology. Treatment periods varied from hours (h) to days and were adjusted based on the results of the Aβ lowering once a time course of onset of effect could be established.
A typical protocol for measuring Aβ lowering in vivo is shown but it is only one of many variations that could be used to optimize the levels of detectable Aβ. For example, Aβ lowering compounds were formulated in 20% of Captisol® (a sulfo-butyl ether of β-cyclodextrin) in water or 20% hydroxypropyl 3 cyclodextrin. The Aβ lowering agents were administered as a single oral dose or by any acceptable route of administration to overnight fasted animals. After 4 h, the animals were sacrificed and Aβ levels were analysed.
Blood was collected by decapitation and exsanguinations in EDTA-treated collection tubes. Blood was centrifuged at 1900 g for 10 minutes (min) at 4° C. and the plasma recovered and flash frozen for later analysis. The brain was removed from the cranium and hindbrain. The cerebellum was removed and the left and right hemisphere were separated. The left hemisphere was stored at −18° C. for quantitative analysis of test compound levels. The right hemisphere was rinsed with phosphate-buffered saline (PBS) buffer and immediately frozen on dry ice and stored at −80° C. until homogenization for biochemical assays.
Mouse brains from non-transgenic animals were resuspended in 8 volumes of 0.4% DEA (diethylamine)/50 mM NaCl containing protease inhibitors (Roche-11873580001 or 04693159001) per gram of tissue, e.g. for 0.158 g brain, add 1.264 ml of 0.4% DEA. All samples were homogenized in the FastPrep-24 system (MP Biomedicals) using lysing matrix D (MPBio #6913-100) at 6 m/s for 20 seconds. […] Nine parts of supernatant were neutralized with 1 part 0.5 M Tris-HCl pH 6.8 and used to quantify Aβ.
To quantify the amount of Aβ42, Aβ40, Aβ38, and Aβ37 in the soluble fraction of the brain homogenates, simultaneous specific detection of Aβ42, Aβ40, Aβ38, and Aβ37 was performed using MSD's electro-chemiluminescence multiplex detection technology. […] Following this incubation and subsequent wash steps the assay was finished by adding read buffer according to the manufacturer's instructions (Meso Scale Discovery, Gaithersburg, Md.).
The SULFO-TAG emits light upon electrochemical stimulation initiated at the electrode. MSD Sector instrument SI6000 was used for signal read-out. […]

[3] = test system: Abeta 1-42 produced and secreted by SKNBE2 cells (BACE1); experiment: BACE1 cellular αLisa assay in SKNBE2 cells, Abeta 1-42; format: cell-based, human; conditions: Homo sapiens, SKNBE2, 18 h, SKNBE2 cells expressing hAPP695, 18 hours incubation; read-out: Cellular αLisa assay in SKNBE2 cells Abeta 42 pIC50 (converted)
Method: as §1, §2, §3

`Cc1nc(C(=O)Nc2ccc(F)c([C@]3(C)Cn4cncc4C(N)=N3)c2)co1` [Compound 4, N-{3-[(6R)-8-Amino-6-methyl-5,6-dihydroimidazo[1,5-a]pyrazin-6-yl]-4-fluorophenyl}-2-methyl-1,3-oxazole-4-carboxamide] was tested, and the IC50 [1] was 24 nM, the IC50 (BACE2) was 6.46 nM and the IC50 (BACE1) was 11.7 nM. The “Aβ40 (% vs Ctrl)_Mean” value ([2]; dose 10, p.o.) was 111 % vs Ctrl, the “Aβ42 (% vs Ctrl)_Mean” value ([2]; dose 10, p.o.) was 108 % vs Ctrl and the IC50 [3] was 26.3 nM.

`C[C@@]1(c2cc(NC(=O)c3ccc(C#N)cn3)ccc2F)Cn2cncc2C(N)=N1` [Compound 5, N-{3-[(6R)-8-Amino-6-methyl-5,6-dihydroimidazo[1,5-a]pyrazin-6-yl]-4-fluorophenyl}-5-cyanopyridine-2-carboxamide] was tested, and the IC50 [1] was 4.79 nM, the “Aβ40 (% vs Ctrl)_Mean” value ([2]; dose 10, s.c.) was 108 % vs Ctrl and the “Aβ42 (% vs Ctrl)_Mean” value ([2]; dose 10, s.c.) was 100 % vs Ctrl. For the same compound, the IC50 [3] was 5.25 nM.
